Biological target: T1, α1β3γ2 GABAA receptor, γ2R408K variant (Homo sapiens, UniProt P14867+P18507+P28472, R408K)
T1 construct: expressed in transfected cells; host or cells: HEK293T
T1 sequence (P14867 28-456): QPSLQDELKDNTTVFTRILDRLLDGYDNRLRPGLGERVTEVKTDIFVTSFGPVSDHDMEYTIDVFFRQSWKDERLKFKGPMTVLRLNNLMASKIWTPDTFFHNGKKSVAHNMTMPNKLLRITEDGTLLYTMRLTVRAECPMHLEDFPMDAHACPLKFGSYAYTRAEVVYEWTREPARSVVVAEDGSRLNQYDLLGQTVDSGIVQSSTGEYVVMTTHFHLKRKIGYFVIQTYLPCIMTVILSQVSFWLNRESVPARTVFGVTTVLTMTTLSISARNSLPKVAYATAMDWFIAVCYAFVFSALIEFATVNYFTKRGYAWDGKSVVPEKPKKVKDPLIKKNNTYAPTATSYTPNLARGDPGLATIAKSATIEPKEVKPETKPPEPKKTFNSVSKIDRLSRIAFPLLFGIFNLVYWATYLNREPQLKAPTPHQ
T1 sequence (P28472 26-473 isoform P28472-2): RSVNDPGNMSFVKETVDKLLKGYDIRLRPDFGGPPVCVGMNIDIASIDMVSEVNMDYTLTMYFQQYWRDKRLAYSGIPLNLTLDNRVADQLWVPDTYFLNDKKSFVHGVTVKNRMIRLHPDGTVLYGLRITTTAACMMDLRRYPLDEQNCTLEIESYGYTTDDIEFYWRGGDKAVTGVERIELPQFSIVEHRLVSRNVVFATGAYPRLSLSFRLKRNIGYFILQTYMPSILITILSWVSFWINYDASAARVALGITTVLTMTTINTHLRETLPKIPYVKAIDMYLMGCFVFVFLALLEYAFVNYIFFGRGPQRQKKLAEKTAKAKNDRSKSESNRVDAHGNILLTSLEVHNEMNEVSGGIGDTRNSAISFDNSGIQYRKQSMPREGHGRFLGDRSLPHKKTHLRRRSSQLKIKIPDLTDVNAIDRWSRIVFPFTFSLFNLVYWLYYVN
T1 sequence (P18507 40-475 R408K): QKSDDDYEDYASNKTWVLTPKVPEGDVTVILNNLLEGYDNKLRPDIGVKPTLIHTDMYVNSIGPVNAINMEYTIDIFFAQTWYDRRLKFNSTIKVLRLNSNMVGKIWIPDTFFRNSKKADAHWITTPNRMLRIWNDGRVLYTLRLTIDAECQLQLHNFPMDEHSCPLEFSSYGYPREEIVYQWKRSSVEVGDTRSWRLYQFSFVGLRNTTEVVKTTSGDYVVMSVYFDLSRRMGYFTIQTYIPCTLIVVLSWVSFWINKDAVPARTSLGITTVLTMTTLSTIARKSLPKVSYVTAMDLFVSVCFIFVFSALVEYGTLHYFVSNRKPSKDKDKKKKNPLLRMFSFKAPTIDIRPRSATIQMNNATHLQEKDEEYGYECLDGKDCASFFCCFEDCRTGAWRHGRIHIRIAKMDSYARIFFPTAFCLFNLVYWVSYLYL
Assay: Automated patch clamp of GABA-elicited currents (SyncroPatch 384PE), γ2R408K
Format: cell-based
Details: 1 mM GABA for 5 ms, HEK293T, mean
Experimental: The coding sequences of human α1 (GABRA1, NM_000806), β3 (GABRB3, NM_021912), and γ2 (GABRG2, NM_198904.2) GABAAR subunits were subcloned into the pcDNA3.1 expression vectors (Invitrogen, Waltham, MA, USA).
HEK293T cells (ATCC, CRL-11268) were cultured at 37 °C in a humidified 5% CO2 incubator and maintained in Dulbecco’s modified Eagle’s medium (Invitrogen) supplemented with 10% fetal bovine serum (Life Technologies, Carlsbad, CA, USA), and 100 IU/mL of penicillin/streptomycin (Life Technologies). For the expression experiments, 4 × 10^5 cells were transfected using polyethylenimine (PEI) reagent (40 kD, Polysciences, Warrington, PA, USA) at a DNA: to transfection reagent ratio of 1:2.5 and harvested 36 h after transfection. To express WT and variant α1β3γ2 receptors, a total of 3 µg of α1, β3, and γ2 (WT or mutant) subunit cDNAs were transfected at a ratio of 1:1:1 into 60 mm culture dishes. For the mock-transfected condition, an empty pcDNA3.1 vector was added for a final cDNA transfection amount of 3 μg. For the electrophysiology experiments, 2.5 × 10^5 cells were plated in 100 mm culture dishes and transfected after 24 h with 3 μg of cDNA of each α1, β3, γ2 (wild-type or mutant) subunit, using X-tremeGENE HP DNA transfection Reagent (Roche Diagnostics, Basel, Switzerland), following the manufacturer’s protocol. Recordings were obtained forty-eight hours after transfection.
Whole-cell patch clamp recordings were conducted according to the manufacturer’s standard procedure for the SyncroPatch 384 [31]. […] Using PatchControl 384, electrophysiological parameters, such as seal resistance, capacitance, and series resistance, were determined for each well after the application of a test pulse, and subsequently monitored over time. […] The currents were normalized to the maximal response of each well, and the concentration–response curves were calculated from single-point additions. The EC50 values for each variant or wild-type receptor were calculated across multiple wells for each experimental condition.

NCCCC(=O)O [GABA, γ-aminobutyric acid]
Deactivation (-80 mV): 165.4 ms | IMAX (maximal GABA-evoked peak current): 0.22 nA | Rise Time (10–90% rise time): 40.23 ms
